Results: patent publication US20130251632A1, “APOPTOSIS PET IMAGING AGENTS” (GE HEALTHCARE LIMITED, priority 2010, published 2013)

Test: Affinity for phosphatidylethanolamine, Biacore 3000 with L1 chip and captured liposomes
Assay type: binding
Settings: POPE/POPC liposomes (20% PE)
Description: A Biacore 3000 (GE Healthcare, Uppsala) was equipped with an L1 chip. Liposomes made of POPE/POPC (20% PE) were applied for the affinity study using the capture technique recommended by the manufacturer. Each run consisted of activation of the chip surface, immobilization of liposomes, binding of peptide and wash off of both liposomes and peptide (regeneration). Similar applications can be found in Frostell-Karlsson et al [Pharm. Sciences, V.94 (1), (2005)]. Thorough washing of needle, tubing and liquid handling system with running buffer was performed after each cycle.
BIACORE software: The BIACORE control software including all method instructions was applied. A method with commands was also written in the BIACORE Method Definition Language (MDL) to have full control over pre-programmed instructions. BIACORE evaluation software was applied for analysing the sensorgrams.

## duramycin
  ka: ~20000 M⁻¹ s⁻¹
